Data reported in the NIST ThermoML archive (doi:10.1016/j.jct.2013.06.007).
Where “and” joins values, the source holds several entries; their conditions need not be identical. Equal entries are not always repeated. ± gives the expanded uncertainty stated by the source.

How the values were obtained:
[1] = Crystal; DTA
[2] = Molar enthalpy of transition or fusion; settings: Crystal; DSC

CCOC(=O)NCCOc1ccc(Oc2ccccc2)cc1 [fenoxycarb]
Normal melting temperature [1]: 53.47 ± 0.48 °C and 52.70 ± 0.87 °C
Molar enthalpy of transition or fusion [2]: 6.75 kcal/mol and 6.39 kcal/mol
